{
  "source": "ChEMBL document CHEMBL1201862",
  "about": "“PubChem BioAssay data set” (2004)",
  "key": {"Melanocortin receptor 4": {"molecular_target": "Melanocortin receptor 4 (Homo sapiens, UniProt P32245)", "sequence (P32245 whole entry)": "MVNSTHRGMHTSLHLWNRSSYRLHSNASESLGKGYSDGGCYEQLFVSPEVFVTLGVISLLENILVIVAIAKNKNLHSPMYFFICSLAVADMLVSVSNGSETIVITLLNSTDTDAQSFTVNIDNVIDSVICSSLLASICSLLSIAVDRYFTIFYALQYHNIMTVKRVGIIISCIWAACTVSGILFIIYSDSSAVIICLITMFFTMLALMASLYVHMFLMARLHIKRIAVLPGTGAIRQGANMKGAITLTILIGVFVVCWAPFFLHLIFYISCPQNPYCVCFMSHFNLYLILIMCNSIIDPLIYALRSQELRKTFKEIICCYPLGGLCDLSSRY", "assay_type": "functional, cell-based"}, "[1]": {"molecular_target": "T1, Ubiquitin-conjugating enzyme E2 N (Homo sapiens, UniProt P61088)", "T1 sequence (P61088 whole entry)": "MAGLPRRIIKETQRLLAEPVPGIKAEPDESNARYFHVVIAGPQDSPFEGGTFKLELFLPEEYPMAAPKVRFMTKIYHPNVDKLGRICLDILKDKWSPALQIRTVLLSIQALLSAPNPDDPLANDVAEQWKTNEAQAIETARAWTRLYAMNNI", "assay_type": "functional"}, "[2]": {"assay": "NIH3T3 cell viability loss – ATP luminescence, mouse fibroblasts, counter-screen, dose response (AID 2010);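 note: cells exposed to compound for about 90 hours before reading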", "assay_type": "functional, cell-based"}, "[3]": {"molecular_target": "Neurotensin receptor type 1 (Homo sapiens, UniProt P30989)", "sequence (P30989 whole entry)": "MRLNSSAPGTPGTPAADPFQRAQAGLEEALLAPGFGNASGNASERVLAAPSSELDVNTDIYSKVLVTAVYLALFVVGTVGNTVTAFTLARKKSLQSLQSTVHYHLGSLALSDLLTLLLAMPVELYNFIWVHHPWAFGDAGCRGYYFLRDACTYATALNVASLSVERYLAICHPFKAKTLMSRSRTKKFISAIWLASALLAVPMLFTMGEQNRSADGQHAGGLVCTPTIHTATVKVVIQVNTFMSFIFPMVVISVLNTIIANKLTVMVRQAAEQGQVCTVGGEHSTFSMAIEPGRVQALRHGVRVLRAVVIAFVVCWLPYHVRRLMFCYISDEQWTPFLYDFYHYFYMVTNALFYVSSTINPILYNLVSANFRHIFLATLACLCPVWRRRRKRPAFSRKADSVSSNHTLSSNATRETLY", "assay_type": "functional"}, "[4]": {"assay": "Trypanosoma cruzi growth suppression in host cells – NIH3T3 host cells, beta-gal luminescence, confirmation (AID 2044);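 note: intracellular parasites grown in NIH/3T3 mouse fibroblasts as host cells; luminescent beta-galactosidase reporter signal from transgenic T. cruzi replicating inside host cells; inhibitors lower the luminescence signal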", "assay_type": "functional, cell-based"}, "[5]": {"molecular_target": "Mitochondrial peptide methionine sulfoxide reductase (Bos taurus, UniProt P54149)", "sequence (P54149 whole entry)": "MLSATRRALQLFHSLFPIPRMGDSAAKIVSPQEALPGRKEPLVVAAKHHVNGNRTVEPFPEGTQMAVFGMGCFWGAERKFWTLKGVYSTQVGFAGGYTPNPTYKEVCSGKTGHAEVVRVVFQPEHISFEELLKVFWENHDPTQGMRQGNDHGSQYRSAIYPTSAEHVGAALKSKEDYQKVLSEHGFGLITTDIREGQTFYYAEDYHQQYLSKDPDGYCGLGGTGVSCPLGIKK", "assay": "Absorbance-based biochemical high throughput dose response assay for activators of Methionine sulfoxide reductase A (MsrA).", "assay_type": "functional"}, "[6]": {"assay": "viability loss in HeLa cells – cytotoxicity control for MgcRacGAP inhibitor project, dose response (AID 624300)", "assay_type": "functional"}, "[7]": {"molecular_target": "T2, Rac GTPase-activating protein 1 (Homo sapiens, UniProt Q9H0H5)", "T2 sequence (Q9H0H5 whole entry)": "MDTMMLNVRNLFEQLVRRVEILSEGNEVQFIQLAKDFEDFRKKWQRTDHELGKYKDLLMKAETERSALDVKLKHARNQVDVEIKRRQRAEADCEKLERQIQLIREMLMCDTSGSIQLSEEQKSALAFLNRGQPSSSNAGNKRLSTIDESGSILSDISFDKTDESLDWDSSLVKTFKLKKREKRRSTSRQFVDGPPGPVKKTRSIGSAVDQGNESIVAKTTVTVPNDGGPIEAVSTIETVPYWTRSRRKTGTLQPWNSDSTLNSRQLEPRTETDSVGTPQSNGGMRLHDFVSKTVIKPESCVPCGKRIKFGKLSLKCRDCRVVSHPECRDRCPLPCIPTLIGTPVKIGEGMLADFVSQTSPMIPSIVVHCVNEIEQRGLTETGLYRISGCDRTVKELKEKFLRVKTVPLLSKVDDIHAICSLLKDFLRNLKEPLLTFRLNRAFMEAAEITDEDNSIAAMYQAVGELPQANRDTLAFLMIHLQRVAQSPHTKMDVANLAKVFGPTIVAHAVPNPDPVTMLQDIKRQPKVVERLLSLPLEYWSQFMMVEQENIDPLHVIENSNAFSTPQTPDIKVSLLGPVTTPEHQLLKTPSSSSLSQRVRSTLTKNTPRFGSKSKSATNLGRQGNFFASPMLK", "assay": "blockers of MgcRacGAP-driven Rac1 GTP hydrolysis – biochemical, ADP Hunter fluorescence, primary and confirmatory, confirmation (AID 624330)", "assay_type": "functional"}, "[8]": {"molecular_target": "DNA (cytosine-5)-methyltransferase 1 (Homo sapiens, UniProt P26358)", "sequence (P26358 whole entry)": "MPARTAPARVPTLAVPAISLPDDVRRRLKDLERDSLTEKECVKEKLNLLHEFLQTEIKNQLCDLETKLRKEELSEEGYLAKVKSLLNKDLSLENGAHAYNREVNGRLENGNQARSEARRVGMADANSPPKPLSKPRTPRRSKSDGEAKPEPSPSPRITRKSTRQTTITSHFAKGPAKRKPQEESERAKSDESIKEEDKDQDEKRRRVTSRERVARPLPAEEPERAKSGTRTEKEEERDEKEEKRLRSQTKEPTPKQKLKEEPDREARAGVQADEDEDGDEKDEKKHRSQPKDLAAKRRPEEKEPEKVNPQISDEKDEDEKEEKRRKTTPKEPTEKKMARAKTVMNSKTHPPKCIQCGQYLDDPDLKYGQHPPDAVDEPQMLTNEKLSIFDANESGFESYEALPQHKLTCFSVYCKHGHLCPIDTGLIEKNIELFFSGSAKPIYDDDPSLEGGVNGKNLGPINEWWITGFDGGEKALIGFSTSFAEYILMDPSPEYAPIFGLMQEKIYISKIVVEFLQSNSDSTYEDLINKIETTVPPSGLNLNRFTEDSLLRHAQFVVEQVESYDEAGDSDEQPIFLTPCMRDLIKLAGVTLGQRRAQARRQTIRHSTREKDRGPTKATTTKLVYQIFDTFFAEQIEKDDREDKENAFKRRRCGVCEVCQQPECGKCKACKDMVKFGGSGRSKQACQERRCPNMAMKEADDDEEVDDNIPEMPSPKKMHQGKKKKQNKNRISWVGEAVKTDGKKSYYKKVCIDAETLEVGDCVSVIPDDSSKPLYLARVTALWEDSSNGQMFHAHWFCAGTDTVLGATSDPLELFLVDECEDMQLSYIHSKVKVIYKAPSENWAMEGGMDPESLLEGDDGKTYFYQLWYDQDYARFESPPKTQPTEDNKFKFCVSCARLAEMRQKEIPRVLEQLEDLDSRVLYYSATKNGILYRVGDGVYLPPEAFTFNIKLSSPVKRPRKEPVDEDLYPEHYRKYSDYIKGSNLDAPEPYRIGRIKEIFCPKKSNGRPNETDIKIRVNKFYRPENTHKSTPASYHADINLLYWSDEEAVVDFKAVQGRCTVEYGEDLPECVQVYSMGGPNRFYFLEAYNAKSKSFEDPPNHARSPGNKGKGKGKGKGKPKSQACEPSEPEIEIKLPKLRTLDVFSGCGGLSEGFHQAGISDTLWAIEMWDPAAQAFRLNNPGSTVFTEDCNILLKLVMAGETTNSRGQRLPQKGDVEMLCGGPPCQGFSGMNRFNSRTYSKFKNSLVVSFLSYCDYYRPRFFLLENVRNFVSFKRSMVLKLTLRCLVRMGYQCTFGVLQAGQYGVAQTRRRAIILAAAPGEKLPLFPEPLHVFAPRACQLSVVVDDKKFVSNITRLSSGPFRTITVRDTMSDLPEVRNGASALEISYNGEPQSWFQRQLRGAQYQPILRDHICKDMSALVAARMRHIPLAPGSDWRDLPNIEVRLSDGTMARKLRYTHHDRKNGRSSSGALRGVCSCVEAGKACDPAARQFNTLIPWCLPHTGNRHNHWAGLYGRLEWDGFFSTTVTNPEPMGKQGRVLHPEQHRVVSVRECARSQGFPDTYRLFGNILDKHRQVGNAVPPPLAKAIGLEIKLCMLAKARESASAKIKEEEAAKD", "assay": "inhibition of DNA methylation by DNMT1 – biochemical, fluorescent molecular beacon, confirmation (AID 602386)", "assay_type": "functional"}, "[9]": {"molecular_target": "Hepatocyte nuclear factor 4-alpha (Homo sapiens, UniProt P41235)", "sequence (P41235 whole entry)": "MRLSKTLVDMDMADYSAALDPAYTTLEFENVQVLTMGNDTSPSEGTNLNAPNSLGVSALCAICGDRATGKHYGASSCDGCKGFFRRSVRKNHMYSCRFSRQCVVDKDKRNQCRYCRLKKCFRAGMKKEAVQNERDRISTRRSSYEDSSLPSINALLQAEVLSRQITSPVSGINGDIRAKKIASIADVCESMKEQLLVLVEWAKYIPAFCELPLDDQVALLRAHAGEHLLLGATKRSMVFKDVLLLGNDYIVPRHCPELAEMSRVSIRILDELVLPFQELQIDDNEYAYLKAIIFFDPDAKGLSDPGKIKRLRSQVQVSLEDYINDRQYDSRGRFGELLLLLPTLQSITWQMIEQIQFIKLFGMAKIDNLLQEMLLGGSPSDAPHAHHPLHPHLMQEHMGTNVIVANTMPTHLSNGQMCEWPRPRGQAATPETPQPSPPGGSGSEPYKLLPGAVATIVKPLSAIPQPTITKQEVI", "assay_type": "functional, cell-based"}, "[10]": {"assay": "bead-based luminescence quenchers, dual-tagged ARNT – biochemical, AlphaScreen, cherry-pick, artefact control for ARNT-TACC3 interaction inhibitor project, dose response (AID 651705);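 note: AlphaScreen bead proximity signal that flags compounds interfering with the detection technology; potency reflects signal decrease which marks the compound as an assay artifact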", "assay_type": "functional"}, "Caspase-8": {"molecular_target": "Caspase-8 (Homo sapiens, UniProt Q14790)", "sequence (Q14790 217-374 limits assumed)": "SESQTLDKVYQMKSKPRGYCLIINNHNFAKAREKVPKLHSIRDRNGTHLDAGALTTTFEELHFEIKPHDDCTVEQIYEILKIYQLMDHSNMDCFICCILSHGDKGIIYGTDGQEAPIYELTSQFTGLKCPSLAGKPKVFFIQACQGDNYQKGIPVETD", "sequence (Q14790 385-479 limits assumed)": "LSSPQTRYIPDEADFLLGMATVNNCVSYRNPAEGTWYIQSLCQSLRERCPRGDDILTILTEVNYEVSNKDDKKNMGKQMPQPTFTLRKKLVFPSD", "assay": "inhibitors of purified CASP8 protease – biochemical, Z-IETD-R110 fluorescence, cherry-picked samples, selectivity assay for caspase-6 inhibitor project, dose response (AID 743294)"}, "Caspase-6": {"molecular_target": "T3, Caspase-6 (Homo sapiens, UniProt P55212)", "T3 sequence (P55212 whole entry)": "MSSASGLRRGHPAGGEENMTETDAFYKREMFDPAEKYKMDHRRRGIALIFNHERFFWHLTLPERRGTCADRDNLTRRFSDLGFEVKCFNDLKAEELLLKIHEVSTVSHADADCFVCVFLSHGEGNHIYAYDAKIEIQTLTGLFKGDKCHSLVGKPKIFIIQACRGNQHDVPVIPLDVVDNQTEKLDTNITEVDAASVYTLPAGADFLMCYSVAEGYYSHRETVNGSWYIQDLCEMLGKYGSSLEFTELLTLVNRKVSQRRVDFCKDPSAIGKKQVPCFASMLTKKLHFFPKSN", "assay": "inhibition of CASP6 peptide cleavage – biochemical, VEID-R110 fluorescence, cherry-pick, dose response (AID 720632)"}, "[11]": {"molecular_target": "T4, Sentrin-specific protease 8 (Homo sapiens, UniProt Q96LD8)", "T4 sequence (Q96LD8 whole entry)": "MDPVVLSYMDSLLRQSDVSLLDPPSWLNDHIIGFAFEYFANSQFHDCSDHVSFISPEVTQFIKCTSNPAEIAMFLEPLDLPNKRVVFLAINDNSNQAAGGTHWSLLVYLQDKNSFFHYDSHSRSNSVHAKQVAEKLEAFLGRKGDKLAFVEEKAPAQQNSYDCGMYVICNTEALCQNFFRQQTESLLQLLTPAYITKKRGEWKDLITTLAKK", "assay_type": "functional"}, "Caspase-3 [12]": {"molecular_target": "T5, Caspase-3 (Homo sapiens, UniProt P42574)", "T5 sequence (P42574 whole entry)": "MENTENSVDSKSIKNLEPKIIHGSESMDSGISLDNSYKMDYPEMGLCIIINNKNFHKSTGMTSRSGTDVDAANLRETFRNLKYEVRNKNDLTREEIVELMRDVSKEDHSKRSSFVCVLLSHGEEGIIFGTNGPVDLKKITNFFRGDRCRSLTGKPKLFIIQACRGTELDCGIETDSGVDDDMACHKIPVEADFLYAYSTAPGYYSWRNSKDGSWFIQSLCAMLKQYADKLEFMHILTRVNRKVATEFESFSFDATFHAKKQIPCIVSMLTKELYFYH", "assay": "Dose-response confirmation of uHTS inhibitor hits of Sentrin-Specific Protease 8 in a Caspase-3 Fluorescence assay.", "assay_type": "functional"}, "Caspase-7": {"molecular_target": "Caspase-7 (Homo sapiens, UniProt P55210)", "sequence (P55210 24-198 limits assumed)": "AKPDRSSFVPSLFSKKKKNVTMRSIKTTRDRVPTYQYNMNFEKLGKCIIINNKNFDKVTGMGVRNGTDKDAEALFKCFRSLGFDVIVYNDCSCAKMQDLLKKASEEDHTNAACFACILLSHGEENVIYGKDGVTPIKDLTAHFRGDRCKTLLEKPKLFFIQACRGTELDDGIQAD", "sequence (P55210 207-303 limits assumed)": "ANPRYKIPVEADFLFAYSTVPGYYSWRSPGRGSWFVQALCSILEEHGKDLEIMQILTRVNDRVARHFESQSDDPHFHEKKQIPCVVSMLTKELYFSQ", "assay": "caspase-7 enzyme inhibition, selectivity check – biochemical, DEVD-R110 fluorescence, cherry-pick, selectivity assay for caspase-6 inhibitor project, dose response (AID 743295)", "assay_type": "functional"}, "Caspase-9": {"molecular_target": "T6, Caspase-9 (Homo sapiens, UniProt P55211)", "T6 sequence (P55211 whole entry)": "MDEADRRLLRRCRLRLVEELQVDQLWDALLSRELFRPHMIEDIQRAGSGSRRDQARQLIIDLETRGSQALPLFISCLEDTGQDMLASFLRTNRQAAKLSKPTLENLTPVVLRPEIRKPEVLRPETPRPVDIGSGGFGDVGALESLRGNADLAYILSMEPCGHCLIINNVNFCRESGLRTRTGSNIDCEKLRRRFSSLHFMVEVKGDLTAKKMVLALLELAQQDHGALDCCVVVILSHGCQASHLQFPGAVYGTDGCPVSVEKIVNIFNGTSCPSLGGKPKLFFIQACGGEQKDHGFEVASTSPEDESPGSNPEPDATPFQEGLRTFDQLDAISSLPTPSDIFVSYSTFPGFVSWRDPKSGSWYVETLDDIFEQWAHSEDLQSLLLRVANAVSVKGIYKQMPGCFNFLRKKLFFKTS", "assay": "inhibitors of purified CASP9 protease – biochemical, fluorescence, plate reader, cherry-picked samples, selectivity assay for caspase-6 inhibitor project, dose response (AID 743293)"}, "[13]": {"molecular_target": "T4, Sentrin-specific protease 8", "assay_type": "functional", "remark": "listed apart in the source"}, "Caspase-3 [14]": {"molecular_target": "T5, Caspase-3", "assay": "human caspase-3 protease activity blockade – biochemical, fluorescence, cherry-picked samples, selectivity assay for caspase-6 allosteric inhibitor project, dose response (AID 743291)"}, "Streptokinase A": {"molecular_target": "T7, Streptokinase A (Streptococcus pyogenes serotype M1, UniProt P10520)", "T7 sequence (P10520 whole entry)": "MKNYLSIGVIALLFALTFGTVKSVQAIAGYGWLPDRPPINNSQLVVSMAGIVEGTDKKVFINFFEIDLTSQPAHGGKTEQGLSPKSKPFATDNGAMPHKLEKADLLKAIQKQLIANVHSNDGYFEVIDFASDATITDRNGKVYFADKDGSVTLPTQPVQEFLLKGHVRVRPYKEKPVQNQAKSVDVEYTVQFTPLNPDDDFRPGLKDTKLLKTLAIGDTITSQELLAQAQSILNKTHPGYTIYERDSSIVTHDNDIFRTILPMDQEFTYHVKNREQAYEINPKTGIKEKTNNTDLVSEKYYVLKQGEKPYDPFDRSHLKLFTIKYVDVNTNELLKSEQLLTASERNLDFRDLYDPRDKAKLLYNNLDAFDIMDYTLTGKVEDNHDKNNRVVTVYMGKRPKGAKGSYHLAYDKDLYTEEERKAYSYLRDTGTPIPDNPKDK", "assay": "viability-normalized secreted streptokinase activity reduction – plasminogen activation absorbance, OD405, dose response (AID 1914);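 note: secreted streptokinase activity via plasminogen activation per viability signal from cell pellet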", "assay_type": "functional, Streptococcus pyogenes M1 GAS"}, "Streptococcus": {"system": "Streptococcus", "assay": "GAS UMAA2166 growth inhibition – luminescence, BacTiterGlo, counter-screen for streptokinase expression inhibitor project, dose response (AID 1915);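 note: potency for reduction of bacterial viability or growth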", "assay_type": "functional, organism-based"}, "[15]": {"molecular_target": "Photoreceptor-specific nuclear receptor (Homo sapiens, UniProt Q9Y5X4)", "sequence (Q9Y5X4 whole entry)": "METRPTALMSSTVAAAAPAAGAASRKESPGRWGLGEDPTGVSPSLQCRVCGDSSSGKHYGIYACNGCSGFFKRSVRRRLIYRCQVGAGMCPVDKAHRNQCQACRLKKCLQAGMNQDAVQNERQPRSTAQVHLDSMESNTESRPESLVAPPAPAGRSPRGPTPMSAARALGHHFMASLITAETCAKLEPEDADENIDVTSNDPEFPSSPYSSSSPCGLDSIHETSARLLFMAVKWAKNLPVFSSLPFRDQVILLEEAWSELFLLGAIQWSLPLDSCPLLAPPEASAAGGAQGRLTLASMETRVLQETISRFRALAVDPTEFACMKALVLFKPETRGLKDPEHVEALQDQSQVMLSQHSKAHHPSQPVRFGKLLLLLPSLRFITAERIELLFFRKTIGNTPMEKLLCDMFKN", "assay_type": "functional, cell-based"}, "[16]": {"system": "Streptococcus sp. 'group A'", "assay": "Streptococcus pyogenes SK(-)GAS viability under kanamycin – luminescence, BacTiterGlo, confirmation, counter-screen for streptokinase expression inhibitor project, dose response (AID 1900)", "assay_type": "functional, organism-based"}},
  "note": "Active and inactive are the calls of the source.",
  "data": [
    {"compound": "CCCOC(=O)c1cccc(Nc2nc(-c3cccnc3)nc3ccccc23)c1", "values": [
      {"measurement": "EC50", "setting": "Melanocortin receptor 4", "value": "> 89.3 µM (inactive)"},
      {"measurement": "IC50", "setting": "[1]", "value": "> 20 µM (inactive)"},
      {"measurement": "EC50", "setting": "[2]", "value": "9.22 µM (active)"},
      {"measurement": "EC50", "setting": "[3]", "value": "> 40 µM (inactive)"},
      {"measurement": "EC50", "setting": "[4]", "value": "0.534 µM (active)"}
    ]},
    {"compound": "CN(CC(=O)Nc1ccccc1N1CCOCC1)S(=O)(=O)c1ccc(Cl)cc1", "values": [
      {"measurement": "EC50", "setting": "[5]", "value": "> 104 µM (inactive)"}
    ]},
    {"compound": "c1ccc2c(c1)c1c(c3ccccc32)CN2CCCC2C1", "note": "(stereo not drawn)", "values": [
      {"measurement": "CC50", "setting": "[6]", "value": "100 µM (active)"},
      {"measurement": "IC50", "setting": "[7]", "value": "111 µM (active)"},
      {"measurement": "IC50", "setting": "[8]", "value": "> 99 µM (inactive)"}
    ]},
    {"compound": "Cc1cccc(C)c1NC(=O)C(c1cccc2ccccc12)n1c(=O)c(-c2ccco2)nc2ccccc21", "note": "(stereo not drawn)", "values": [
      {"measurement": "IC50", "setting": "[9]", "value": "2.56 µM (active)"}
    ]},
    {"compound": "Nc1nc(CN2CCCCCC2)nc(Nc2ccccc2)n1", "values": [
      {"measurement": "AC50", "setting": "[10]", "value": "133 µM (active)"}
    ]},
    {"compound": "CC[C@H](CO)Oc1cc(NCc2cccc(N)c2)c2ncn(C(C)C)c2c1", "values": [
      {"measurement": "AC50", "setting": "Caspase-8", "value": "31.8 µM (active)"},
      {"measurement": "AC50", "setting": "Caspase-6", "value": "1.58 µM (active)"},
      {"measurement": "IC50", "setting": "[11]", "value": "1.87 µM (active)"},
      {"measurement": "IC50", "setting": "Caspase-3 [12]", "value": "8.35 µM (active)"},
      {"measurement": "AC50", "setting": "Caspase-7", "value": "4.66 µM (active)"},
      {"measurement": "AC50", "setting": "Caspase-9", "value": "46.5 µM (active)"},
      {"measurement": "IC50", "setting": "[13]", "value": "1.65 µM (active)"},
      {"measurement": "AC50", "setting": "Caspase-3 [14]", "value": "3.87 µM (active)"}
    ]},
    {"compound": "CCN(c1ccccc1)S(=O)(=O)c1ccc(C(=O)Nc2nnc(CSC)o2)cc1", "values": [
      {"measurement": "EC50", "setting": "Streptokinase A", "value": "> 150 µM (not active)"},
      {"measurement": "EC50", "setting": "Streptococcus", "value": "15 µM (active)"},
      {"measurement": "IC50", "setting": "[15]", "value": "8.64 µM (active)"},
      {"measurement": "EC50", "setting": "[16]", "value": "3.5 µM (active)"}
    ]}
  ]
}
